Results reported in patent US11851459B2, “Methods and uses of modulators of anaphase promoting complex (APC) activity for treating cancer” (University of Saskatchewan, priority 2018, dated 2023).

Experiments:
apc5^CA cells = assay: Yeast replicative lifespan (RLS) assay; type: cell-based
Description: A. apc5^CA (temperature sensitive allele) cells were transformed with C43-4 or an empty vector. Cells grown overnight in 2% Glu were struck onto 2% Glucose plates and used for the yeast RLS assay. From the top left hand corner of the figures, top line is WT +empty vector, middle line is apc5^CA+C43-4 peptide and bottom line is apc5^CA+empty vector. B. WT cells transformed with C43-4, C2-4B or an empty vector were grown to stationary phase in 2% Glu media, then after 2 days spot diluted onto 2% Glu or 2% Gal to induce expression of the peptides.

MDA-MB-231 cells = assay: DOX sensitivity, MTT viability assay, MDA-MB-231 cells expressing peptides; type: cell-based, human; settings: for sensitivity to DOX treatment: DOX 1 uM 48 hrs
Description: A. Transient transfection of the C43-4 peptide plasmid into human triple negative MDA-MB-231 breast cancer cells followed by Western blot analysis of lysates against Cyclin B, Securin and Cdc20 showing enhanced protein loss. B. Cells in A were treated with DOX (1 uM) for 48 hrs with cell viability measured using an MTT assay kit. The experiment was done in triplicate with standard error of the means shown.
A. Stable integration of C43-4 in MDA-MB-231 cells was established by selection of transfected cells on Geneticin for 7 days. Westerns against APC substrates show APC activation. B. Cells in A were treated with DOX (1 uM) for 48 hrs with cell viability measured using an MTT assay kit. Mean and SEM of 3 biological repeats.
A. TNBC MDA-MB-231 cells stably expressing APC binding peptides activate the APC. Cells were grown to confluence and then used to prepare protein lysates. The lysates were used to measure levels of the APC substrate CDC20, which will be reduced if the APC is activated. Cells stably expressing the pcDNA empty vector were used as a control. B. In a similar experiment, MDA-MB-231 cells stably expressing the APC binding peptides shown, or the empty vector control, were used to measure protein levels of the APC substrate HURP using Westerns. C. Triplicate blots as in B were scanned, normalized to tubulin and plotted. Error of the mean is shown. Significant changes are indicated. D. MDA-MB-231 cells stably expressing the empty pcDNA vector, or the C43-4 and C13-3 APC binding peptides, were treated with 1 μM Doxorubicin for 24 hrs. Cell viability was measured using an MTT viability assay.
In FIG. 26B, MDA-MB-231 cells were also stably transfected with the peptides C1-8, C2-4B, C3-1B, and C9-5. Levels of the APC substrate HURP were measured in lysates prepared from these cells. […] The empty vector pcDNA was also stably expressed in 231 cells and used as a control.

## NGSSHNDLRVRRLTLISRLC [C43-4]
apc5^CA cells
  replicative lifespan: increased replicative lifespan
MDA-MB-231 cells; stably transfected, 1 uM Doxorubicin 24 hours
  synergy with Doxorubicin (killing effect): synergize
MDA-MB-231 cells; stably transfected
  sensitivity to DOX treatment: resensitized
MDA-MB-231 cells; transiently transfected
  sensitivity to DOX treatment: resensitized
